Inconclusive results are not listed. Activity calls are given as the source filed them.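 How the source made its calls: active means inhibition of 30% or more at any tested concentration; inactive means the rest, inconclusive results apart.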

As a reminder, the IC50 is the point on the concentration scale where inhibition reaches its midpoint.

One experiment addresses M1-family alanyl aminopeptidase (Plasmodium falciparum 3D7). Nature of the experiment: PfM1AAP enzyme inhibition, dose response, selectivity assay for PfM17LAP inhibitor project, biochemical, QFRET, H-Leu-NHMec substrate (AID 588698). The settings on record: recombinant PfM1AAP, H-Leu-NHMec fluorogenic substrate cleavage.
For `O=C(Cc1ccc2ccccc2c1)NO`, the half-maximal inhibitory concentration (IC50) was 33.7 µM.

For the compound `O=C(Cc1cccc2ccccc12)NO`, the IC50 was 79.4 µM.

Still in this experiment, the particulars now being: recombinant PfM1AAP, H-Leu-NHMec fluorogenic substrate cleavage; at 100 µM (top of the series).
On to `Cc1ccc(NC(=O)CSc2nc(O)cc(=O)n2Cc2ccccc2)cc1`, for which the inhibition entry was “inactive”.

Consider `COC(=O)c1ccccc1NC(=O)c1ccc2c(Cl)c3c(nc2c1)CCC3`, for which the inhibition entry is “inactive”.

`CC1=C(C)CC(C(=O)Nc2ccc(Oc3ccc(Cl)cc3)cc2)C(C(=O)O)C1` (stereo not drawn): the inhibition entry was “inactive”.

For `COc1ccc(OCCC(=O)NO)cc1`, the inhibition result was “inactive”.

Take `CC(C)C[C@H](N)C(=O)NO`: the inhibition result is “inactive”.

Regarding `NC(N)=NCCC[C@H](N)C(=O)NO`, the inhibition entry is “inactive”.

For `COC(=O)c1c(NC(=O)C2CC=CCC2C(=O)O)sc(C)c1-c1ccc(C)cc1` (stereo not drawn), the inhibition entry was “inactive”.

`Cc1cc(=O)[nH]c(SCC(=O)Nc2ccccc2)n1`: the inhibition result is “inactive”.

Regarding `Cc1cc(SCC(=O)Nc2ccccc2C(=O)O)nc2ccccc12`, the inhibition result is “inactive”.

`O=C(Nc1ccc(Cl)cc1)Nc1ccccc1C(=O)O`: the inhibition entry was “inactive”.

With `COc1cc(NC(=O)c2ccc(-c3ccccc3)cc2)c(C(=O)O)cc1OC`, the inhibition entry was “inactive”.

For the compound `CC1CCc2sc(C(=O)Nc3cccc4c3C(=O)NC4)cc2C1` (stereo not drawn), the inhibition entry was “inactive”.

For `COc1cc(NC(=O)CSc2ccccc2)c(C(=O)O)cc1OC`, the inhibition entry is “inactive”.

Turning to `O=C1OCCC1Sc1nnc(NC2CCCCC2)s1` (stereo not drawn), the inhibition entry is “inactive”.

With `COC(=O)c1ccccc1NC(=O)c1cc2cc3ccc(C)cc3nc2s1`, the inhibition result is “inactive”.

As for `CCn1c2ccccc2c2cc(NC(=O)CSc3nc(C)cc(=O)[nH]3)ccc21`, the inhibition entry was “inactive”.

For the compound `COC(=O)c1cc(OC)c(OC)cc1NC(=O)c1sc2nc(C)ccc2c1N`, the inhibition result is “inactive”.

Regarding `CC1=C(C)CC(C(=O)Nc2nc(-c3cc(C)ccc3C)c(C)s2)C(C(=O)O)C1` (stereo not drawn), the inhibition entry was “inactive”.

For `COc1ccc(-c2nnc(NC(=O)C3CC(C)=C(C)CC3C(=O)O)s2)cc1` (stereo not drawn), the inhibition entry was “inactive”.

`CCC(C)(C)C1CCc2c(sc(NC(=O)C3CC(C)=C(C)CC3C(=O)O)c2C(=O)OC)C1` (stereo not drawn): the inhibition entry was “inactive”.

With `COC(=O)c1c(NC(=O)c2ccccc2C(=O)O)sc2c1CCCC2`, the inhibition entry is “inactive”.

`O=C(O)c1ccccc1C(=O)Nc1nc2c(s1)CCCC2`: the inhibition result is “inactive”.

In the case of `O=C(CSc1nccc(=O)[nH]1)Nc1ccc(N2CCOCC2)cc1`, the inhibition entry is “inactive”.

In the case of `COC(=O)c1c(NC(=O)C2CCCCC2C(=O)O)sc2c1CCC(c1ccccc1)C2` (stereo not drawn), the inhibition entry is “inactive”.

As for `O=C(CSc1nc(O)cc(=O)[nH]1)Nc1ccccc1`, the inhibition entry is “inactive”.

For `O=C(CSc1nccc(=O)[nH]1)Nc1ccc(Oc2ccccc2)cc1`, the inhibition result is “inactive”.

The values are drawn from PubChem BioAssay AID588698 (Southern Research Specialized Biocontainment Screening …, 2011).
